Source: PMC6494957 (Frontiers in Microbiology, 2019)

Assays:
MDCK cell line = test: In vitro cytotoxicity, WST-1; type: cell-based, canine; settings: Canis lupus familiaris, 10% FBS, read-out: IC50, single agent
Protocol: (§1) Cells were maintained in Dulbecco’s modified Eagle’s medium (DMEM) with 10% fetal bovine serum (FBS) and 1% PenStrep (100 U/mL Penicillin and 100 μg/mL Streptomycin) at 37°C with 5% CO2. Cells were serially passaged at ∼80% confluence ∼ every 4 days. Assays were performed in duplicate in 96 well plates seeded with ∼25,000 cells per well. […] Briefly, the antimicrobials were prepared by performing a twofold serial dilution at 100× of tested concentration in DMSO. Subsequently, a 1 μl aliquot of each concentration was transferred to a sterile 96-well plate containing fresh DMEM with either 10% FBS. After mixing four times, the media aliquots with different concentrations of antimicrobial were transferred to each well of the 96-well plate seeded with cells, using wells containing 1–2% DMSO only as control. To determine the effect of FBS on the cytotoxicity of each compound, DMEM with 40% FBS containing different concentrations of antimicrobial was prepared as described above. After 24 h of exposure, WST-1 reagent (Cell Proliferation Assay reagent, Roche) at a concentration of 10% was added to each well. Absorbance at A450 nm on a Multiskan Ascent 354 Spectrophotometer (Labsystems) was measured after 1 h of incubation. The IC50 value was determined for each compound against each cell line via non-linear regression (three parameters) using GraphPad Prism v6 software.

HEK 293 cell line = test: In vitro cytotoxicity, WST-1; type: cell-based; settings: Homo sapiens, HEK293, 10% FBS, read-out: IC50, single agent
Protocol: as §1

[1] = tested on: all the cell lines tested (HaCaT, HEK 293, MDCK); test: cells
Protocol: as §1

[2] = tested on: tested pathogens (canine otitis externa isolates); test: MIC, summary over canine otitis externa pathogens; type: cell-based
Protocol: Luria Bertani (LB) broth (Oxoid, Australia) was applied for MIC testing in lieu of cation-adjusted Mueller-Hinton broth as robenidine has been previously shown to chelate calcium ions. Furthermore, a twofold serial dilution of robenidine was performed in 100% DMSO, with 1 μl dispensed to each well due to the hydrophobicity of the compound ([Abraham et al., 2016]). The MIC for ampicillin or gentamicin against each isolate was determined for each test to serve as an internal quality control. The MICs of isolates were determined by visual reading and using an EnSpire Multimode Plate Reader 2300 atA600nm. […] Each well of the plate was inoculated with an aliquot of 10 μl bacterial suspension at a concentration of 1-5 × 10^6 colony forming units (CFU) per ml. Subsequently, the plate was incubated at 37°C for 24 h. The fractional inhibitory concentration index (FICI) described the results of the combinations, and was calculated utilizing the following formula: […]

[3] = tested on: 18 A. baumannii isolated from human clinical cases; test: MIC/MBC, human clinical Acinetobacter isolates; type: cell-based; settings: 18 A. baumannii human clinical isolates
Description: (§2) Escherichia coli ATCC 25922, E. coli ATCC 11229, P. aeruginosa ATCC 27853, P. aeruginosa PA01, Pseudomonas putida ATCC 17428, P. mirabilis ATCC 43071, K. pneumoniae ATCC 13883, A. baumannii ATCC 19606, and A. baumannii ATCC 12457 were used for preliminary susceptibility testing and combination experiments. S. aureus ATCC 29213 and S. pneumoniae ATCC 49619 were used as internal quality controls. A variety of bacterial organisms from both human and canine infections were investigated in this study (n = 119 isolates in total). Twenty-eight clinical Acinetobacter spp. isolates were obtained from cases of human skin and soft tissue infections, including 18 Acinetobacter baumannii and 10 A. calcoaceticus, kindly provided by a person (Institute of Medical and Veterinary Science, South Australia). […] Ninety-one clinical isolates were obtained from cases of canine otitis externa, including seven methicillin-susceptible S. pseudintermedius (MSSP), 13 multidrug- and methicillin-resistant S. pseudintermedius (MRSP) ([Saputra et al., 2017]), 20 beta-haemolytic Streptococcus spp., 30 P. aeruginosa (10 of them resistant to gentamicin and 21 P. mirabilis isolates). These isolates were obtained from the bacterial collection of the national survey of antimicrobial resistance in animals conducted in Australia. Swab samples from dogs with signs of otitis externa were collected by veterinarians and submitted to government, private or university diagnostic laboratories throughout Australia. After routine bacterial identification and the removal of confidential information, the participating veterinary diagnostic laboratories submitted the bacteria and their clinical information to PC2 Laboratories, Australian Centre for Antimicrobial Resistance Ecology, School of Animal and Veterinary Sciences, University of Adelaide, Roseworthy Campus, Roseworthy, SA, Australia, for further study. Thus, animal ethics approval was not required in this study. These organisms were identified to species level using biochemical testing and MALDI-TOF mass spectrometry (Bruker, Preston, VIC, Australia).
(§3) The MIC for ampicillin or gentamicin against each isolate was determined for each test to serve as an internal quality control. The MICs of isolates were determined by visual reading and using an EnSpire Multimode Plate Reader 2300 atA600nm.
(§4) Briefly, 10 μl aliquots from each duplicate well from the MIC assays (starting from the MIC for each compound) were inoculated onto a sheep blood agar (SBA) plate and incubated at 37°C.

[4] = tested on: 10 A. calcoaceticus isolated from human clinical cases; test: MIC/MBC, human clinical Acinetobacter isolates; type: cell-based; settings: 10 A. calcoaceticus human clinical isolates
Description: as §2, §3, §4

[5] = tested on: Gram-negative control strains; test: Checkerboard, summary over Gram-negative strains; type: cell-based
Protocol: Briefly, antimicrobial stock solutions for robenidine and PMBN were prepared at a concentration of 12.8 mg/ml in DMSO. […] A 1 μl aliquot of the first compound from each combination was dispensed along the abscissa (from row A to G) of the 96-well microplate, while the second compound was dispensed along the ordinate (from column 12 to column 3) using an electronic multichannel pipette followed by 89 μl of LB broth. Each well of the plate was inoculated with an aliquot of 10 μl bacterial suspension at a concentration of 1-5 × 10^6 colony forming units (CFU) per ml. Subsequently, the plate was incubated at 37°C for 24 h. The fractional inhibitory concentration index (FICI) described the results of the combinations, and was calculated utilizing the following formula:
DRI = MIC of drug alone/MIC of drug in combination

clinical MRSA = tested on: clinical MRSA; design: method as in Abraham et al., 2016; Ogunniyi et al., 2017; settings: ref Abraham et al., 2016, Ogunniyi et al., 2017; cited from earlier work

| SMILES | IC50 (MDCK cell line) [mM] | IC50 (HEK 293 cell line) [mM] | IC50 [1] [mM] | MIC values ([2]; Gram-positive bacteria: S. pseudintermedius and beta-haemolytic streptococci) [µg/mL] | MIC90 of robenidine ([2]; in the presence of EDTA, tested pathogens) [µg/mL] | MIC range [3] [µg/mL] | MIC ([3]; Acinetobacter baumannii) [µg/mL] | MIC range [4] [µg/mL] | MIC ([4]; Acinetobacter calcoaceticus) [µg/mL] | lowest robenidine concentration inhibiting growth ([5]; in combination with PMBN, Gram-negative ATCC strains of ESKAPE pathogens) [µg/mL] | DRIs of robenidine ([5]; in the presence of EDTA, Gram-negative control strains (Table 1)) | DRIs of robenidine ([5]; in the presence of PMBN, Gram-negative control strains (Table 2)) | MIC ([5]; in the presence of PMBN, Gram-negative pathogens, read-out: MIC of robenidine) [µg/mL] | DRIs of robenidine ([5]; in the presence of both EDTA and PMBN, all tested isolates (abstract)) | fold increase in susceptibility ([5]; robenidine in combination with PMBN, Gram-negative ATCC strains of ESKAPE pathogens) | effective concentrations (MIC range) (clinical MRSA) [µg/mL] |
| --- | --- | --- | --- | --- | --- | --- | --- | --- | --- | --- | --- | --- | --- | --- | --- | --- |
| O=C(O)CN(CCN(CC(=O)O)CC(=O)O)CC(=O)O [EDTA, ethylenediaminetetraacetic acid] | 3.4 | 3.4 | 3.4 |  |  |  |  |  |  |  |  |  |  |  |  |  |
| N=C(N/N=C/c1ccc(Cl)cc1)N/N=C/c1ccc(Cl)cc1 [ROB, robenidine] |  |  |  | 1 to 16 | 0.5 to 4 | 8 to 64 | 8 | 1 to 8 | 2 | ≥ 0.125 | 2- to 256 fold | 8- to 256 fold | 0.5 to 8 | 2- to 2048 fold | 4- to 256 fold | 1 to 2 |
